Measured values reported in US20240122180A1, “FUNGICIDAL HALOMETHYL KETONES AND HYDRATES AND THEIR MIXTURES” (FMC Corporation, priority 2020, published 2024).

What was measured:
[1] = system: Puccinia recondita f. sp. tritici (the causal agent of wheat leaf rust); assay: Test B: preventive spray on wheat seedlings, disease rating (100 = 100% control; * 50 ppm, ** 10 ppm, *** 250 ppm); type: in vivo; settings: 100 = 100% disease control
In short: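 Wheat seedlings sprayed to run-off with compound in acetone/water (50/50) containing 250 ppm PEG400, inoculated next day with Puccinia recondita f. sp. tritici spores. Held 24 h saturated at 20° C, then 6 days at 20° C; disease control rated 0–100 relative to controls.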

[2] = system: Phakopsora pachyrhizi (the causal agent of Asian soybean rust); assay: Test A: preventive spray on soybean seedlings, visual disease rating (100 = 100% control; * 50 ppm, ** 10 ppm, *** 250 ppm); type: in vivo; settings: 100 = 100% disease control
In short: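 Soybean seedlings sprayed to run-off with compound suspended in acetone/water with 250 ppm PEG400 surfactant, inoculated next day with P. pachyrhizi spores. Kept 24 h saturated at 22 °C, then 8 days at 22 °C before visual rating of disease control (0-100) relative to controls.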

[3] = 50 ppm test suspension, wheat seedlings
[4] = 50 ppm test suspension, soybean seedlings
[5] = 10 ppm test suspension, 0 = no control
[6] = 10 ppm test suspension, wheat seedlings
[7] = 10 ppm test suspension, soybean seedlings
[8] = Puccinia recondita, 50 ppm test suspension, 0 = no control
[9] = Phakopsora pachyrhizi, 50 ppm test suspension, 0 = no control
[10] = 50 ppm test suspension, 0 = no control

| SMILES | Test B disease control rating [1, 5] [%] | Test A disease control rating [2, 5] [%] | Test B disease control rating [1, 6] [%] | Test A disease control rating [2, 7] [%] | further results |
| --- | --- | --- | --- | --- | --- |
| CCOC(=O)c1cnn(CCc2ccc(OCC(O)(O)C(F)(F)F)cc2)c1 [compound 131] | – | – | – | – | Test B disease control rating [1, 3]: 86%; Test A disease control rating [2, 4]: 99% |
| CCNC(=O)c1cnn(Cc2cccc(O/C=C(\OCC)C(F)(F)F)c2)c1 [compound 343] | 0 | 0 | – | – | – |
| COCCNC(=O)c1csc(Cc2ccc(OCC(O)(O)C(F)(F)F)cc2)n1 [Compound 223] | – | – | 0 | 75 | – |
| CCO/C(=C\Oc1cccc(Cn2cc(C(=O)OCCC(F)=C(F)F)cn2)c1)C(F)(F)F [compound 349] | 0 | 100 | – | – | – |
| CCOC(=O)c1cnn(CCCc2ccc(OCC3(C(F)(F)F)OCCO3)cc2)c1 [compound 296] | 0 | 0 | – | – | – |
| C#CCO/C(=C\Oc1ccc(Cn2cc(C(=O)OCC)cn2)cc1)C(F)(F)F [compound 56] | – | – | 0 | 38 | – |
| C=CCOC(=O)c1ccc(O/C=C(\OCC)C(F)(F)F)cc1 [compound 74] | – | – | 0 | 0 | – |
| CCO/C(=C\Oc1cccc(Cn2cc(C(=O)OCCOC(F)(F)F)cn2)c1)C(F)(F)F [compound 352] | 0 | 100 | – | – | – |
| C=C(C)COC(=O)c1cnn(Cc2ccc(OCC3(C(F)(F)F)OCCO3)cc2)c1 [compound 228] | – | – | 0 | 100 | – |
| COC(COc1cccc(Cn2cc(Br)cn2)c1)(O[Si](C)(C)C)C(F)(F)F (stereo not shown) [compound 385] | – | – | – | – | pest or weed control at 50 ppm [1, 8]: 68%; pest or weed control at 50 ppm [2, 9]: 100% |
| FC(F)(F)C1(COc2ccc(-c3ccccc3)cc2)OCCO1 [compound 190] | – | – | 0 | 0 | – |
| CCOC(=O)C=CCOc1ccc(O/C=C(\OCC)C(F)(F)F)cc1 [compound 96] | – | – | 0 | 13 | – |
| CCOC(=O)NCc1ccc(O/C=C(\OCC)C(F)(F)F)cc1 [compound 111] | – | – | 0 | 0 | – |
| CCO/C(=C\Oc1ccc(S(=O)(=O)N(C)C)cc1)C(F)(F)F [compound 61] | – | – | 0 | 0 | – |
| CCOC(=O)c1cnn(Cc2ccc(OCC3(C(F)(F)F)OCCO3)nc2)c1 [compound 166] | – | – | 95 | 100 | – |
| CCO/C(=C\Oc1cccc(Cn2cc(C(=O)OCCC(C)C)cn2)c1)C(F)(F)F [compound 350] | 0 | 100 | – | – | – |
| CCOC(=O)c1cnn(Cc2ccc(O/C=C(\OS(=O)(=O)C(F)(F)F)C(F)(F)F)cc2)c1 [compound 422] | – | – | – | – | Test B disease control rating [1, 10]: 84%; Test A disease control rating [2, 10]: 100% |
| CCO/C(=C\Oc1cccc(Cn2cc(C(=O)OCCC(F)(F)F)cn2)c1)C(F)(F)F [compound 348] | 0 | 100 | – | – | – |
| CCO/C(=C\Oc1ccc(Cn2cc(C#N)cn2)cc1)C(F)(F)F [compound 205] | – | – | 0 | 0 | – |

| SMILES | Test B disease control rating [1, 5] [%] | Test A disease control rating [2, 5] [%] | Test B disease control rating [1, 6] [%] | Test A disease control rating [2, 7] [%] | further results |
| --- | --- | --- | --- | --- | --- |
| Cc1ccc(OCC(O)(O)C(F)(F)F)cc1 [compound 396] | – | – | – | – | Test B disease control rating [1, 10]: 19%; Test A disease control rating [2, 10]: 31% |
| CCOC(=COc1ccc(Cn2nccc2C(=O)OC)cc1)C(F)(F)F [compound 250] | – | – | 0 | 0 | – |
| CCOC(=O)c1cnn(Cc2ccc(O/C=C(/OCC)C(F)(F)F)cc2)c1 [compound 399] | – | – | – | – | pest or weed control at 50 ppm [1, 8]: 0%; pest or weed control at 50 ppm [2, 9]: 97% |
| CCO/C(=C\Oc1ccc(Cc2ccnc(OCC(F)F)n2)cc1)C(F)(F)F [compound 306] | – | – | – | – | Test B disease control rating [1, 10]: 68%; Test A disease control rating [2, 10]: 96% |
| CCO/C(=C\Oc1ccc(Cn2cc(Cl)cn2)cc1)C(F)(F)F [compound 180] | – | – | 0 | 0 | – |
| CCCC(=O)N(Cc1ccc(OCC2(C(F)(F)F)OCCO2)cc1)OC [compound 237] | – | – | 0 | 97 | – |
| CCCCCCOC(=O)c1cnn(Cc2ccc(OCC3(C(F)(F)F)OCCO3)cc2)c1 [compound 16] | – | – | 0 | 99 | – |
| CCOC(=O)c1cnn(CCCc2cccc(O/C=C(\OCC)C(F)(F)F)c2)c1 [compound 421] | 0 | 0 | – | – | – |
| O=C(OCCCCl)c1cnn(Cc2ccc(OCC3(C(F)(F)F)OCCO3)cc2)c1 [compound 161] | – | – | 0 | 100 | – |
| CC(C)OC(=O)c1cnn(Cc2ccc(OCC(O)(O)C(F)(F)F)cc2)c1 [compound 39] | – | – | 79 | 91 | – |
| O=S(=O)(NCc1ccc(OCC2(C(F)(F)F)OCCO2)cc1)C(F)(F)F [compound 207] | – | – | 0 | 0 | – |
| CCO/C(=C\Oc1ccc(CN2CCCC2=O)cc1)C(F)(F)F [compound 224] | – | – | 0 | 0 | – |
| OCc1ccc(OCC2(C(F)(F)F)OCCO2)cc1 [compound 178] | – | – | 0 | 0 | – |
| C=CCOC(=O)c1cnn(Cc2ccc(OCC3(C(F)(F)F)OCCO3)cc2)c1 [compound 188] | – | – | 0 | 100 | – |
| CCOC(=O)c1cnn(CCCc2ccc(O/C=C(\OCC)C(F)(F)F)cc2)c1 [compound 294] | 0 | 100 | – | – | – |
| CCOC(=O)c1cnn(Cc2cc(O/C=C(\OCC)C(F)(F)F)ccc2C)c1 [compound 451] | – | – | – | – | Test B disease control rating [1, 10]: 0%; Test A disease control rating [2, 10]: 0% |
| O=C(OCC(F)(F)F)c1cnn(Cc2ccc(OCC3(C(F)(F)F)OCCO3)cc2)c1 [compound 134] | – | – | 32 | 89 | – |
| CCO/C(=C\Oc1ccc(Cn2nc(C)cc2C)cc1)C(F)(F)F [compound 152] | – | – | 0 | 0 | – |
| CCO/C(=C\Oc1cccc(Cn2cc(C(=O)OCC3CCC3)cn2)c1)C(F)(F)F [compound 342] | 0 | 100 | – | – | – |

| SMILES | Test B disease control rating [1, 5] [%] | Test A disease control rating [2, 5] [%] | Test B disease control rating [1, 6] [%] | Test A disease control rating [2, 7] [%] | further results |
| --- | --- | --- | --- | --- | --- |
| C#CCOC(=O)c1cnn(Cc2cccc(O/C=C(\OCC)C(F)(F)F)c2)c1 [compound 336] | 0 | 100 | – | – | – |
| CCOC(=O)c1cncn1Cc1cccc(O/C=C(\OCC)C(F)(F)F)c1 [compound 447] | – | – | – | – | pest or weed control at 10 ppm ([1]; Puccinia recondita, 10 ppm test suspension, 0 = no control): 0%; pest or weed control at 10 ppm ([2]; Phakopsora pachyrhizi, 10 ppm test suspension, 0 = no control): 0% |
| CC(C)CS(=O)(=O)NCc1ccc(OCC2(C(F)(F)F)OCCO2)cc1 [compound 76] | – | – | 0 | 0 | – |
| CCOC(=O)c1ccn(Cc2ccc(F)c(O/C=C(\OCC)C(F)(F)F)c2)n1 [compound 420] | 0 | 0 | – | – | – |
| CCOC(=O)C1CCCN(Cc2ccc(O/C=C(\OCC)C(F)(F)F)cc2)C1 (stereo not shown) [compound 269] | 0 | 100 | – | – | – |
| C=CCOC(=O)c1ccn(Cc2ccc(OC=C(OCC)C(F)(F)F)cc2)n1 [compound 291] | 0 | 100 | – | – | – |
| CCO/C(=C\Oc1ccc(C(=O)O)cc1)C(F)(F)F [compound 72] | – | – | – | – | Test B disease control rating [1, 3]: 0%; Test A disease control rating [2, 4]: 13% |
| CCOC(=COc1ccc(Cc2ccnc(S(C)(=O)=O)n2)cc1)C(F)(F)F [compound 307] | – | – | – | – | Test B disease control rating [1, 10]: 0%; Test A disease control rating [2, 10]: 0% |
| CC#CCOC(=O)c1cnn(Cc2cccc(O/C=C(\OCC)C(F)(F)F)c2)c1 [compound 300] | 0 | 100 | – | – | – |
| CCO/C(=C\Oc1ccc(Cn2cc(C(=O)O)cn2)cc1)C(F)(F)F [compound 116] | – | – | 0 | 100 | – |
| CCOC(=O)C1CCN(Cc2ccc(O/C=C(\OCC)C(F)(F)F)cc2)CC1 [compound 268] | 0 | 99 | – | – | – |
| C#CCOC(=O)c1cnn(Cc2ccc(OCC3(C(F)(F)F)OCCO3)cc2)c1 [compound 15] | – | – | 0 | 100 | – |
| FC(F)(F)C1(COc2ccc(CNC(=S)NC3CCCCC3)cc2)OCCO1 [compound 77] | – | – | 0 | 99 | – |
| CCO/C(=C\Oc1ccc(CC#N)cc1)C(F)(F)F [compound 154] | – | – | 0 | 0 | – |
| CCO/C(=C\Oc1ccc(Cn2cnc(SC)n2)cc1)C(F)(F)F [compound 261] | 0 | 0 | – | – | – |
| CCO/C(=C\Oc1ccc(Cn2c(=O)oc3ccccc32)cc1)C(F)(F)F [compound 226] | – | – | 0 | 0 | – |
| CCOC(=O)c1cnn(Cc2ccc(OCC(O)(NO)C(F)(F)F)cc2)c1 (stereo not shown) [compound 10] | – | – | 86 | 100 | – |
| CCOC(=O)c1ccnn1Cc1cc(C)cc(O/C=C(\OCC)C(F)(F)F)c1 [compound 462] | 0 | 0 | – | – | – |
